The source of these data is the supplement of paper PMC10307832.

Common to all, as to assay: relative viability (nuclei count vs DMSO), 5 days (fraction); higher = more cells survive
Compound in assay [1]: CCC1=CN=CN=C1N2CCN(CC2)CC3=NC4=C(N3)C=C(C=C4)C(F)(F)F + O=C(c1cc(Cc2n[nH]c(=O)c3ccccc23)ccc1F)N1CCN(C(=O)C2CC2)CC1 [Olaparib] (partner 8 µM)
The gist of the method: (§1)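 Relative viability equals treated-well nuclei counts divided by vehicle-well nuclei counts. Counts came from 4× images of lung cancer cell lines grown in 1536-well plates for 5 days after pin-tool dosing on the day after seeding. Dosing used one drug alone or a fixed anchor-drug dose plus five library-drug doses (not always all listed) in √10 steps, and values are medians of duplicate plates.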

Compound in assay [2]: CCn1c(-c2nonc2N)nc2cnc(Oc3cccc(NC(=O)c4ccc(OCCN5CCOCC5)cc4)c3)cc21 + N=C(N)NC(=N)NCCc1ccccc1 [Phenformin] (partner 250 µM)
Put shortly:
as §1

Compound in the assay “Mirin + Palbociclib”: N=C1NC(=O)/C(=C/c2ccc(O)cc2)S1 [Mirin] + CC(=O)c1c(C)c2cnc(Nc3ccc(N4CCNCC4)cn3)nc2n(C2CCCC2)c1=O [Palbociclib] (partner 0.5 µM)
Put shortly: as §1

Compound in the assay “Mirin + Olaparib”: N=C1NC(=O)/C(=C/c2ccc(O)cc2)S1 [Mirin] + O=C(c1cc(Cc2n[nH]c(=O)c3ccccc23)ccc1F)N1CCN(C(=O)C2CC2)CC1 [Olaparib] (partner 8 µM)
The gist of the method:
as §1

On to UMC-11, for which the relative viability in assay [1] (first compound 0.04 µM) came to 0.393; in assay [1] (first compound 0.1265 µM), 0.392; in assay [1] (first compound 0.4 µM), 0.359; in assay [1] (first compound 1.265 µM), 0.32; in assay [1] (first compound 4 µM), 0.332; in assay [2] (first compound 0.04 µM), 0.304. The relative viability in assay [2] (first compound 0.1265 µM) was 0.25; in assay [2] (first compound 0.4 µM) it was 0.198; in assay [2] (first compound 1.265 µM), 0.225; in assay [2] (first compound 4 µM) it was 0.129; with Mirin + Palbociclib (first compound 0.25 µM) it was 0.33; with Mirin + Palbociclib (first compound 2.5 µM), 0.317. Also, the relative viability was found to be 0.331 with Mirin + Palbociclib (first compound 7.906 µM); 0.309 with Mirin + Palbociclib (first compound 25 µM); 0.382 in the assay with Mirin + Olaparib (first compound 0.25 µM); 0.316 in the assay with Mirin + Olaparib (first compound 0.7906 µM); 0.332 in the assay with Mirin + Olaparib (first compound 2.5 µM); 0.279 in the assay with Mirin + Olaparib (first compound 7.906 µM). Also, the relative viability with Mirin + Olaparib (first compound 25 µM) is 0.331.
